In patent publication US20100063065A1 (Inpharmatica Limited, priority 2005, published 2010):

What follows are compounds tested against T1, PPARδ (Homo sapiens, UniProt Q03181) (assay: Transactivation assay (PPARδ GAL4 assay) in transiently transfected HEK293 cells). Details: luciferase reporter, Table 2.
T1 construct: fused to amino acids 147-441 of PPARδ downstream of CMV promoter; expressed in transfected cells; host or cells: HEK293 cells, transiently transfected with pFACMV-PPARδ using Fugene
T1 sequence (Q03181 147-441): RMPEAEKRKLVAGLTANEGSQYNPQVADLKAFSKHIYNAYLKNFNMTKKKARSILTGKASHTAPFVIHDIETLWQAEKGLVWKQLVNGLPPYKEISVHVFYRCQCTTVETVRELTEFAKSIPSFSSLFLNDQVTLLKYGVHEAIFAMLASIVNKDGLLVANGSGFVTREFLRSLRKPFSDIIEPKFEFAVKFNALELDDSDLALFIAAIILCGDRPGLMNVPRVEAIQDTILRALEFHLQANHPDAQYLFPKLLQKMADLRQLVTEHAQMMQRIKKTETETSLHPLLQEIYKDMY
Type: cell-based
In short: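 Luciferase luminescence after 24 h compound treatment (0-30 μM final, OptiMEM, 37° C./5% CO2) gave EC50 by sigmoidal fitting, with activity normalised to GW501516 as percent. Reporter system: transiently transfected HEK293 expressing GAL4 DNA-binding domain fused to human PPARδ aa 147-441, plus 5×GAL4-driven luciferase.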

EC50 [µM]	SMILES
< 0.1	CCc1cc(C(=O)c2ccc(OC(F)(F)F)cc2)c(NC(=O)[C@H](C)SCC(=O)O)s1 [Example 195, {(S)-1-[5-Ethyl-3-(4-trifluoromethoxy-benzoyl)-thiophen-2-ylcarbamoyl]-ethylsulfanyl}-acetic acid]
1 to 30	CCc1cc(C(=O)c2ccc(OC(F)(F)F)cc2)c(NC(=O)CN(C)C(C)(C)C(=O)O)s1 [Example 196, 2-({[5-Ethyl-3-(4-trifluoromethoxy-benzoyl)-thiophen-2-ylcarbamoyl]-methyl}-methyl-amino)-2-methyl-propionic acid]
0.1 to 1	CCc1cc(C(=O)c2ccc(OC(F)(F)F)cc2)c(NC(=O)CN(C)C2(C(=O)O)CC2)s1 [Example 197, 1-({[5-Ethyl-3-(4-trifluoromethoxy-benzoyl)-thiophen-2-ylcarbamoyl]-methyl}-methyl-amino)-cyclopropanecarboxylic acid]
< 0.1	CCc1cc(C(=O)c2ccc(OC(F)(F)F)cc2)c(NC(=O)CN(C)[C@@H](C)C(=O)O)s1 [Example 198, (S)-2-({[5-Ethyl-3-(4-trifluoromethoxy-benzoyl)-thiophen-2-ylcarbamoyl]-methyl}-methyl-amino)-propionic acid]

Second part, the compound before the results:

SMILES	EC50 [µM]
CCc1cc(C(=O)c2ccc(OC(F)(F)F)cc2)c(NC(=O)CN[C@@](C)(CC)C(=O)O)s1 [Example 192, (S)-2-({[5-Ethyl-3-(4-trifluoromethoxy-benzoyl)-thiophen-2-ylcarbamoyl]-methyl}-amino)-2-methyl-butyric acid]	0.1 to 1
CCc1cc(C(=O)c2ccc(OC(F)(F)F)cc2)c(NC(=O)CCN2CCC[C@@H]2C(=O)O)s1 [Example 193, (R)-1-{2-[5-Ethyl-3-(4-trifluoromethoxy-benzoyl)-thiophen-2-ylcarbamoyl]-ethyl}-pyrrolidine-2-carboxylic acid]	0.1 to 1
CCc1cc(C(=O)c2ccc(OC(F)(F)F)cc2)c(NC(=O)CCSCC(=O)O)s1 [Example 194, {2-[5-Ethyl-3-(4-trifluoromethoxy-benzoyl)-thiophen-2-ylcarbamoyl]-ethylsulfanyl}-acetic acid]	< 0.1
